For twelve compounds, inhibition results are on record in US20090317360A1, “ANTI-VIRAL INHIBITORS AND METHODS OF USE” (Genelabs Technologies, Inc., priority 2007, published 2009).

For orientation: inhibition means the percentage by which the read-out fell short of the control.

A short description of the test: Replicon assay (luciferase readout, ET cell line). In kind it is cell-based. The conditions noted are these: Hepatitis C virus; 10 μM compound; ET (Huh-lucubineo-ET) cells; luciferase activity measured 48-72 hours after addition; relative to no compound control; read-out: % Inhib. at 10 μM (percent inhibition of replication). The procedure: A cell line, ET (Huh-lucubineo-ET) is used for screening of compounds for inhibiting HCV RNA dependent RNA polymerase. The ET cell line is stably transfected with RNA transcripts harboring a I389luc-ubi-neo/NS3-3′/ET; replicon with firefly luciferase-ubiquitin-neomycin phosphotransferase fusion protein and EMCV-IRES driven NS3-5B polyprotein containing the cell culture adaptive mutations (E1202G; T12801; K1846T) (Krieger at al, 2001 and unpublished). The ET cells are grown in DMEM (Dulbeco's Modified Eagle's Medium), supplemented with 10% fetal calf serum, 2 mM Glutamine, Penicillin (100 IU/mL)/Streptomycin (100 μg/mL), 1× nonessential amino acids, and 250 μg/mL G418 (“Geneticin”). They are all available through Life Technologies (Bethesda, Md.). The cells are plated at 0.5-1.0×10^4 cells/well in the 96 well plates and incubated for 24 hrs before adding test compound. The compounds are added to the cells to achieve a final concentration of 0.1 nM to 50 μm and a final DMSO (dimethylsulfoxide) concentration of 0.5%. Luciferase activity is measured 48-72 hours later by adding a lysis buffer and the substrate (Catalog number Glo-lysis buffer E2661 and Bright-Glo luciferase system E2620 Promega, Madison, Wis.). Cells should not be too confluent during the assay. Percent inhibition of replication data is plotted relative to no compound control. Under the same condition, cytotoxicity of the compounds are determined using cell proliferation reagent, WST-1(Roche, Germany). The compounds showing antiviral activities, but no significant cytotoxicities are chosen to determine IC50 and TC50. For these determinations, a 10 point, 2-fold serial dilution for each compound was used, which spans a concentration range of 1000 fold. IC50 and TC50 values were calculated by fitting % inhibition at each concentration to the following equation:
% inhibition=100%/[(IC50/[I])^b+1]
where b is Hill's coefficient. […]
On the technique in general: In antiviral work, replicon cells carry a viral genome segment that copies itself.
Consider `O=C(Nc1nc(-c2ccc(C(=O)NC3CC3)cc2)cs1)c1ccc(CN2CCS(=O)(=O)CC2)cc1` [Compound 102, 4-{2-[4-(1,1-Dioxo-thiomorpholin-4-ylmethyl)-benzoylamino]-thiazol-4-yl}-N-cyclopropyl-benzamide], for which the inhibition at 10 µM amounted to 47.4%. Then `O=C(Nc1ccc(N2CCOCC2)cc1)c1cccc(-c2csc(NC(=O)c3ccc(CN4CCS(=O)(=O)CC4)cc3)n2)c1` [Compound 104, 3-{2-[4-(1,1-Dioxo-thiomorpholin-4-ylmethyl)-benzoylamino]-thiazol-4-yl}-N-(4-morpholin-4-yl-phenyl)-benzamide], with 95.8%; and `O=C(Nc1ccc(N2CCOCC2)cc1)c1cccc(-c2csc(C(=O)Nc3ccc(CN4CCS(=O)(=O)CC4)cc3)n2)c1` [Compound 107, 4-[3-(4-Morpholin-4-yl-phenylcarbamoyl)-phenyl]-thiazole-2-carboxylic acid [4-(1,1-dioxo-thiomorpholin-4-ylmethyl)-phenyl]-amide], with 36.5%. For `O=C(Nc1ccc(CN2CCS(=O)(=O)CC2)cc1)c1cccc(-c2csc(C(=O)Nc3ccc(N4CCOCC4)cc3)n2)c1` [Compound 108, 4-{3-[4-(1,1-Dioxo-thiomorpholin-4-ylmethyl)-phenylcarbamoyl]-phenyl}-thiazole-2-carboxylic acid (4-morpholin-4-yl-phenyl)-amide], the inhibition at 10 µM was determined as 63.1%. Then `O=C(Nc1ccc(CN2CCS(=O)(=O)CC2)cc1)c1cccc(-c2csc(NC(=O)c3ccc(N4CCOCC4)cc3)n2)c1` [Compound 109, 3-[2-(4-morpholin-4-yl-benzoylamino)-thiazol-4-yl]-N-[4-(1,1-dioxo-thiomorpholin-4-ylmethyl)-phenyl]-benzamide], with 99.8%. In the case of `O=C(Nc1ccc(CN2CCS(=O)(=O)CC2)cc1)c1ccc(-c2csc(C(=O)Nc3ccc(CN4CCS(=O)(=O)CC4)cc3)n2)cc1` [Compound 110, 4-{4-[4-(1,1-Dioxo-thiomorpholin-4-ylmethyl)-phenylcarbamoyl]-phenyl}-thiazole-2-carboxylic acid [4-(1,1-dioxo-thiomorpholin-4-ylmethyl)-phenyl]-amide], the inhibition at 10 µM came out at 99.9%.

As for `O=C(Nc1ccc(N2CCOCC2)cc1)c1ccc(-c2csc(C(=O)Nc3ccc(N4CCOCC4)cc3)n2)cc1` [Compound 111, 4-[4-(4-Morpholin-4-yl-phenylcarbamoyl)-phenyl]-thiazole-2-carboxylic acid (4-morpholin-4-yl-phenyl)-amide], the inhibition at 10 µM was determined as 34.2%. For `O=C(Nc1ccc(N2CCOCC2)cc1)c1cccc(-c2csc(C(=O)Nc3ccc(N4CCOCC4)cc3)n2)c1` [Compound 112, 4-[3-(4-Morpholin-4-yl-phenylcarbamoyl)-phenyl]-thiazole-2-carboxylic acid (4-morpholin-4-yl-phenyl)-amide], the inhibition at 10 µM was determined as 98.5%. Consider `O=C(Nc1ccc(CN2CCS(=O)(=O)CC2)cc1)c1cccc(-c2csc(C(=O)Nc3ccc(CN4CCS(=O)(=O)CC4)cc3)n2)c1` [Compound 113, 4-{3-[4-(1,1-Dioxo-thiomorpholin-4-ylmethyl)-phenylcarbamoyl]-phenyl}-thiazole-2-carboxylic acid [4-(1,1-dioxo-thiomorpholin-4-ylmethyl)-phenyl]-amide], for which the inhibition at 10 µM is 89.5%. Turning to `CCCS(=O)(=O)N1CCN(Cc2ccc(NC(=O)c3ccc(-c4csc(C(=O)Nc5ccc(CN6CCN(S(=O)(=O)CCC)CC6)cc5)n4)cc3)cc2)CC1` [Compound 114, 4-(4-{4-[4-(Propane-1-sulfonyl)-piperazin-1-ylmethyl]-phenylcarbamoyl}-phenyl)-thiazole-2-carboxylic acid {4-[4-(propane-1-sulfonyl)-piperazin-1-ylmethyl]-phenyl}-amide], the inhibition at 10 µM is 98%. Then `CCCS(=O)(=O)N1CCN(Cc2ccc(NC(=O)c3cccc(-c4csc(C(=O)Nc5ccc(CN6CCN(S(=O)(=O)CCC)CC6)cc5)n4)c3)cc2)CC1` [Compound 115, 4-(3-{4-[4-(Propane-1-sulfonyl)-piperazin-1-ylmethyl]-phenylcarbamoyl}-phenyl)-thiazole-2-carboxylic acid {4-[4-(propane-1-sulfonyl)-piperazin-1-ylmethyl]-phenyl}-amide], with 100%. Then `CCCS(=O)(=O)N1CCN(Cc2ccc(NC(=O)c3cccc(-c4csc(C(=O)Nc5ccc(N6CCOCC6)cc5)n4)c3)cc2)CC1` [Compound 116, 4-(3-{4-[4-(Propane-1-sulfonyl)-piperazin-1-ylmethyl]-phenylcarbamoyl}-phenyl)-thiazole-2-carboxylic acid (4-morpholin-4-yl-phenyl)-amide], with 99.5%.
